Test [1] deals with T1, human recombinant Monoacylglycerol Lipase (Homo sapiens, UniProt Q99685).
T1 sequence (Q99685 1-303): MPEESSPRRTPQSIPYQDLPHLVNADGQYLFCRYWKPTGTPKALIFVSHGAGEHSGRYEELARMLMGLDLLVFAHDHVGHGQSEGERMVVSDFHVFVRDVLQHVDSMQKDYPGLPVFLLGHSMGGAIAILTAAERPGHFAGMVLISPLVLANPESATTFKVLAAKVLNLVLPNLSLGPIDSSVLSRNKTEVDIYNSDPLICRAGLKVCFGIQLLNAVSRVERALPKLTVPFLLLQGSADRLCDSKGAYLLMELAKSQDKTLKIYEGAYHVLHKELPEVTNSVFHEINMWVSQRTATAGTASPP
Description: MAGL inactivation (kinact/KI from enzyme progress curves, T=0 min protocol). To be noted: from plot of Kobs vs. compound concentration, geometric mean of 2-5 determinations (b: ≥6).

The target of test [2] is T1, human recombinant Monoacylglycerol Lipase. The experiment in a line: MAGL enzymatic assay (IC50; 7-HCA substrate added at T=0 min or T=30 min). Type of test: biochemical.
The mark [3] stands for this setting: MAGL (T = 30 min) IC50, substrate 7-HCA added after 30 minute incubation (T=30 min), geometric mean of 2-5 determinations unless otherwise indicated.
The mark [4] stands for this setting: substrate 7-HCA added immediately (T=0 min), geometric mean of 2-5 determinations unless otherwise indicated, read-out: MAGL (T = 0 min) IC50.
The mark [5] stands for this setting: read-out: MAGL (T=30 min) IC50, 30 minute incubation of compound with MAGL enzyme before addition of 7-HCA substrate.
The mark [6] stands for this setting: MAGL (T=30 min) IC50, 30 minute incubation of compound with MAGL enzyme before addition of 7-HCA substrate.

Here are results for 30 molecules from patent US10626125B2, “1,1,1-trifluoro-3-hydroxypropan-2-yl carbamate derivatives as MAGL inhibitors” (PFIZER INC., priority 2017, dated 2020).

Where two headings read alike, the source gives them in different places.

For `O=C(O[C@H](CO)C(F)(F)F)N1CCC2(CC1)CC(c1ccc(C(F)(F)F)cn1)C2` [Example 79, (2R)-1,1,1-trifluoro-3-hydroxypropan-2-yl 2-[5-(trifluoromethyl)pyridin-2-yl]-7-azaspiro[3.5]nonane-7-carboxylate], the “MAGL kinact/KI” value in test [1] was 63500 1/s per M. The half-maximal inhibitory concentration (IC50) in test [2] (setting [3]) is 1 nM; in test [2] (setting [4]), 8 nM.
The matching figures for `O=C(O[C@H](CO)C(F)(F)F)N1CCC2(CC1)CC(c1cc(C(F)(F)F)ccn1)C2` [Example 83, (2R)-1,1,1-trifluoro-3-hydroxypropan-2-yl 2-[4-(trifluoromethyl)pyridin-2-yl]-7-azaspiro[3.5]nonane-7-carboxylate]: 156000 1/s per M, 0.6 nM and 5 nM.
Regarding `O=C(O[C@H](CO)C(F)(F)F)N1CCC2(CC1)CC(Oc1ccc(F)cn1)C2` [Example 88, (2R)-1,1,1-trifluoro-3-hydroxypropan-2-yl 2-[(5-fluoropyridin-2-yl)oxy]-7-azaspiro[3.5]nonane-7-carboxylate], the “MAGL kinact/KI” value in test [1] is reported as 33000 1/s per M. Also, the values for the IC50 in test [2] (setting [3]) and in test [2] (setting [4]) were 1 nM and 16 nM, respectively.
Taken in the same sequence, the figures for `CN(C(=O)C1CCCC1)[C@H]1COC2(CCN(C(=O)O[C@H](CO)C(F)(F)F)CC2)C1` [Example 5, (2R)-1,1,1-Trifluoro-3-hydroxypropan-2-yl (3R)-3-[(cyclopentylcarbonyl)(methyl)amino]-1-oxa-8-azaspiro[4.5]decane-8-carboxylate] were 5530 1/s per M, 7 nM and 67 nM.
In the case of `N#Cc1ccc([C@H]2COC3(CCN(C(=O)O[C@H](CO)C(F)(F)F)CC3)C2)cc1F` [Example 27, (2R)-1,1,1-trifluoro-3-hydroxypropan-2-yl (3S)-3-(4-cyano-3-fluorophenyl)-1-oxa-8-azaspiro[4.5]decane-8-carboxylate], the “MAGL kinact/KI” value in test [1] was 22800 1/s per M. For the same molecule, the values for the half-inhibitory concentration (IC50) in test [2] (setting [3]) and in test [2] (setting [4]) were 3 nM and 17 nM, respectively.
Taken in the same sequence, the figures for `O=C(O[C@H](CO)C(F)(F)F)N1CCC2(CC1)CC(Oc1cc(C(F)F)ccn1)C2` [Example 89, (2R)-1,1,1-trifluoro-3-hydroxypropan-2-yl 2-{[4-(difluoromethyl)pyridin-2-yl]oxy}-7-azaspiro[3.5]nonane-7-carboxylate] were 31900 1/s per M, 0.8 nM and 8 nM.
As to `COc1cc(C2CC3(CCN(C(=O)O[C@H](CO)C(F)(F)F)CC3)C2)ccn1` [Example 47, (2R)-1,1,1-trifluoro-3-hydroxypropan-2-yl 2-(2-methoxypyridin-4-yl)-7-azaspiro[3.5]nonane-7-carboxylate], the “MAGL kinact/KI” value in test [1] is 17100 1/s per M. Besides, the IC50 in test [2] (setting [3]) worked out at 2 nM; in test [2] (setting [4]), 17 nM.
Taken in the same sequence, the figures for `O=C(O[C@H](CO)C(F)(F)F)N1CCC2(CC1)CC(n1cc(C3CC3)cn1)CO2` (mixture of isomers) [Example 23, (2R)-1,1,1-trifluoro-3-hydroxypropan-2-yl 3-(4-cyclopropyl-1H-pyrazol-1-yl)-1-oxa-8-azaspiro[4.5]decane-8-carboxylate, mixture of diastereomers] were 9650 1/s per M, 9 nM and 68 nM.
As for `CN(C(=O)C(C)(C)C)C1CC2(CCN(C(=O)O[C@H](CO)C(F)(F)F)CC2)C1` [Example 42, (2R)-1,1,1-trifluoro-3-hydroxypropan-2-yl 2-[(2,2-dimethylpropanoyl)(methyl)amino]-7-azaspiro[3.5]nonane-7-carboxylate], the “MAGL kinact/KI” value in test [1] is 309000 1/s per M. The IC50 in test [2] (setting [3]) was 0.4 nM; in test [2] (setting [4]) it was 4 nM.
On to `O=C(O[C@H](CO)C(F)(F)F)N1CCC2(CC1)CC(c1cccc(C(F)(F)F)n1)CO2` (single isomer, unassigned) [Example 15], for which the “MAGL kinact/KI” value in test [1] was 8230 1/s per M. Moreover, the values for the IC50 in test [2] (setting [3]) and in test [2] (setting [4]) were 7 nM and 67 nM, respectively.
Taken in the same sequence, the figures for `O=C(O[C@H](CO)C(F)(F)F)N1CCC2(CC1)CC(n1cc(C(F)F)cn1)C2` [Example 66, (2R)-1,1,1-trifluoro-3-hydroxypropan-2-yl 2-[4-(difluoromethyl)-1H-pyrazol-1-yl]-7-azaspiro[3.5]nonane-7-carboxylate] were 15700 1/s per M, 4 nM and 40 nM.
Take `N#Cc1cccc(C2CC3(CCN(C(=O)O[C@H](CO)C(F)(F)F)CC3)C2)c1` [Example 46, (2R)-1,1,1-trifluoro-3-hydroxypropan-2-yl 2-(3-cyanophenyl)-7-azaspiro[3.5]nonane-7-carboxylate]: the “MAGL kinact/KI” value in test [1] is on record as 167000 1/s per M. For the same molecule, the results for the half-inhibitory concentration (IC50) in test [2] (setting [3]) and in test [2] (setting [4]) were 1 nM and 4 nM, respectively.
As for `O=C(O[C@H](CO)C(F)(F)F)N1CCC2(CC1)CC(n1cc(F)cn1)C2` [Example 64, (2R)-1,1,1-trifluoro-3-hydroxypropan-2-yl 2-(4-fluoro-1H-pyrazol-1-yl)-7-azaspiro[3.5]nonane-7-carboxylate], in test [1], the “MAGL kinact/KI” value is on record as 6260 1/s per M. The IC50 in test [2] (setting [3]) amounted to 9 nM; in test [2] (setting [4]), 96 nM.
For the molecule `Cc1cnn(C2COC3(CCN(C(=O)O[C@H](CO)C(F)(F)F)CC3)C2)c1` (single isomer, unassigned) [Example 24], the “MAGL kinact/KI” value in test [1] is 7840 1/s per M. In addition, the 50% inhibitory concentration (IC50) is 12 nM in test [2] (setting [3]) and 115 nM in test [2] (setting [4]).
Consider `O=C(O[C@H](CO)C(F)(F)F)N1CCC2(CC1)CC(c1ccc(C(F)F)nc1)CO2` (single isomer, unassigned) [Example 37], for which the “MAGL kinact/KI” value in test [1] is 3840 1/s per M. For the same molecule, the IC50 in test [2] (setting [3]) stood at 8 nM; in test [2] (setting [4]), 57 nM.
Taken in the same sequence, the figures for `CN(C1CC2(CCN(C(=O)O[C@H](CO)C(F)(F)F)CC2)C1)S(=O)(=O)CC1CC1` [Example 18, (2R)-1,1,1-Trifluoro-3-hydroxypropan-2-yl 2-{[(cyclopropylmethyl)sulfonyl](methyl)amino}-7-azaspiro[3.5]nonane-7-carboxylate] were 14900 1/s per M, 4 nM and 52 nM.
On to `O=C(O[C@H](CO)C(F)(F)F)N1CCC2(CC1)CC(c1ccc(F)cn1)CO2` (single isomer, unassigned) [Example 17], for which, in test [1], the “MAGL kinact/KI” value is 1390^b 1/s per M. The IC50 in test [2] (setting [3]) came out at 26 nM; in test [2] (setting [4]) it was 297 nM.
Take `O=C(OC(CO)C(F)(F)F)N1CCC2(CC1)CC(c1ccc(F)cc1)CO2` (single isomer, unassigned) [diastereomer of Example 34]: the IC50 in test [2] (setting [5]) is 1 nM.
For the molecule `O=C(O[C@H](CO)C(F)(F)F)N1CCC2(CC1)C[C@@H](n1cc(F)cn1)CO2` [Example 11, (2R)-1,1,1-Trifluoro-3-hydroxypropan-2-yl (3R)-3-(4-fluoro-1H-pyrazol-1-yl)-1-oxa-8-azaspiro[4.5]decane-8-carboxylate], the IC50 in test [2] (setting [3]) was determined as 15 nM; in test [2] (setting [4]), 211 nM.
As to `CC(C)(C)c1cnn(C2COC3(CCN(C(=O)OC(CO)C(F)(F)F)CC3)C2)c1` (single isomer, unassigned) [diastereomer of Example 21], the IC50 in test [2] (setting [5]) came to 7 nM.
`O=C(O[C@H](CO)C(F)(F)F)N1CCC2(CC1)CC(c1c(F)cccc1F)CO2` (single isomer, unassigned) [diastereomer of Example 32]: the IC50 in test [2] (setting [6]) was 1 nM.
Still for that read-out and setting: for `O=C(O[C@H](CO)C(F)(F)F)N1CCC2(CC1)CC(n1cc(C(F)F)cn1)CO2` (single isomer, unassigned) [diastereomer of Example 20] the value was 65 nM.
`N#Cc1ccc(C2COC3(CCN(C(=O)OC(CO)C(F)(F)F)CC3)C2)nc1` (single isomer, unassigned) [diastereomer of Example 38]: the IC50 in test [2] (setting [5]) came out at 336 nM.
With `O=C(OC(CO)C(F)(F)F)N1CCC2(CC1)CC(n1cc(Cl)cn1)CO2` (single isomer, unassigned) [diastereomer of Example 22], the IC50 in test [2] (setting [5]) was 23 nM.
Turning to `CN(C1CCOC2(CCN(C(=O)O[C@H](CO)C(F)(F)F)CC2)C1)S(=O)(=O)CC1CC1` (single isomer, unassigned) [Example 50], the IC50 in test [2] (setting [3]) is 67 nM; in test [2] (setting [4]), 752 nM.
Regarding `O=C(OC(CO)C(F)(F)F)N1CCC2(CC1)CC(c1ccc(F)cc1F)CO2` (single isomer, unassigned) [diastereomer of Example 33], the IC50 in test [2] (setting [5]) is 2 nM.
As for `O=C(OC(CO)C(F)(F)F)N1CCC2(CC1)CC(c1ccccn1)CO2` (single isomer, unassigned) [diastereomer of Example 41], the IC50 in test [2] (setting [5]) was 20 nM.
For the molecule `O=C(O[C@H](CO)C(F)(F)F)N1CCC2(CC1)CC(n1ncc3ccccc31)CO2` (single isomer, unassigned) [diastereomer of Example 62], in test [2] (setting [5]), the IC50 came to 49 nM.
On to `N#Cc1cc(C2COC3(CCN(C(=O)OC(CO)C(F)(F)F)CC3)C2)ccc1F` (single isomer, unassigned) [diastereomer of Example 28], for which, in test [2] (setting [5]), the IC50 came out at 14 nM.
On the same count and under the same terms, with `O=C(OC(CO)C(F)(F)F)N1CCC2(CC1)CC(c1ccc(C(F)(F)F)cn1)CO2` (single isomer, unassigned) [diastereomer of Example 40] the figure was 9 nM.

Broadly, the IC50 is the midpoint of a concentration-inhibition curve.
